Assay results published in article PMC5460201, “Bacterial protease uses distinct thermodynamic signatures for substrate recognition” (Scientific Reports, 2017).
Peptide text beside a SMILES is read from it.

Columns and labels:
[1] = target: T1, PeDPP11 (PeDPP11_22-717 S652A) (Porphyromonas endodontalis, UniProt F8WQK8, S652A); test: Isothermal titration calorimetry (ITC) of peptide binding to PeDPP11
T1 construct: genes encoding for C-terminal 6xHis-tagged PeDPP11_22-717 S652A and PgDPP11_22-720 S655A in the pET-22b(+) vector; 6xHis (C); made in house; host or cells: E. coli BL21(DE3)pLysS
Method: All experiments were carried out in 10 mM Hepes-NaOH pH 7.4, 100 mM NaCl. Both the enzymes and the peptides were dissolved in the same buffer. The bindings were analysed with a MicroCal^TM iTC200 microcalorimeter (GE Healthcare, Life Sciences) equilibrated at the respective temperature. […] Every injection was carried out over a period of 4 s with a spacing of 110 s between the injections. […] These corrected values were plotted against the ratio peptide vs. protein concentration in the cell to generate the binding isotherm. Nonlinear least-squares fitting using Origin version 7.0 (Microcal) was used to obtain the association constants (K a), heats of binding (ΔH) and stoichiometries. […] The reported values are averages of at least two independent measurements.

[2] = system: cAMP-dependent protein kinase A (PKA-C); details: NMR and molecular dynamics; ref [40]; cited from earlier work
Excerpt: Due to experimental challenges, the role of conformational entropy in molecular recognition by proteins has begun to be elucidated only recently, mainly by nuclear magnetic resonance (NMR) relaxation methods. Using NMR techniques and molecular dynamics simulations, Veglia and colleagues observed in cAMP-dependent protein kinase A (PKA-C) a similar binding mode to that of DPP11. […] Conversely, binding of the inhibitor PKI5-24 (protein ki ...

[3] = target: Porphyromonas endodontalis dipeptidyl peptidase 11, PeDPP11_(22-717) S652A (Porphyromonas endodontalis) (UniProt F8WQK8); test: ITC; peptide injected into PeDPP11 in the cell; 10 mM Hepes-NaOH pH 7.4, 100 mM NaCl; 25 °C; one-site binding model
[4] = target: the molecule itself; test: SEC-MALS

Molecule: CC(C)C[C@H](N)C(=O)N[C@@H](CC(=O)O)C(=O)N[C@H](C(=O)N[C@@H](Cc1c[nH]c2ccccc12)C(=O)O)C(C)C [LDVW, Leu-Asp-Val-Trp] (H-LDVW-OH)
- Kd ([1]; 15 °C (288 K), 10 mM Hepes-NaOH pH 7.4, 100 mM NaCl, averages of at least two independent measurements): 9000 ± 700 nM

Molecule: CC(C)C[C@H](N)C(=O)N[C@@H](CC(=O)O)C(=O)O [LD] (H-Leu-Asp-OH)
- Kd ([1]; 10 °C (283 K), 10 mM Hepes-NaOH pH 7.4, 100 mM NaCl, 1.28 mM LD to 120 μM PeDPP11, averages of at least two independent measurements): 500 ± 100 nM
- Kd ([1]; 20 °C (293 K), 10 mM Hepes-NaOH pH 7.4, 100 mM NaCl, averages of at least two independent measurements): 1000 ± 300 nM

Molecule: Arg-Asp [RD]
- ΔH bind ([1]; 25 °C, 10 mM Hepes-NaOH pH 7.4, 100 mM NaCl, 600 μM LDVW to 60 μM, 810 μM LD to 75 μM, 1 mM LDL to 75 μM, 1.0 mM RD to 80 μM PeDPP11, averages of at least two independent measurements): -3.7 kcal/mol
- change in entropy on binding ([1]; 25 °C, due to water displacement caused by peptide binding and concomitant domain motion): favourable change in entropy
- thermodynamic signature of binding ([1]; 25 °C, pH 7.4): enthalpy-driven process

Molecule: PKI5-24
- effect on PKA-C protein dynamics [2]: stabilizes the protein, quenching the enzyme dynamics
- thermodynamic signature of binding to PKA-C [2]: enthalpically driven

Molecule: PLN1-20: substrate PLN1-20 (phospholamban) of PKA-C (MEKVQYLTRSAIRRASTIEM; UniProt P26678 1-20, looked up, fragment)
- effect on PKA-C protein dynamics [2]: increased conformational dynamics
- thermodynamic signature of binding to PKA-C [2]: entropically driven

Molecule: dipeptide Arg-Asp
- dH [3]: -3.7 kcal/mol

Molecule: dipeptide LD
- dH [3]: -5.26 kcal/mol

Molecule: substrate peptide LDL
- dH [3]: 4.06 kcal/mol

Molecule: substrate peptide Leu-Asp-Val-Trp
- dH [3]: 5.69 kcal/mol

B1: Porphyromonas endodontalis dipeptidyl peptidase 11, PeDPP11_(22-717) S652A (enzyme)
chain: DGGMWLMQQINGQVARMKSLGMQLEAADIYNPNGSSLKDAVVMFDGGCTGVLVSNQGLLLTNHHCGYDQIQKHSSVQHNYLKDGFWSYSLAEELVNPGLEVEIVDEITDVTAAVKKELERIKKPSGLEFLSPRYLSSLAPEIVGKKAASRPGYRYEIKAFYGGNRYYMFTKKVFRDVRLVAAPPSSIGKFGSDTDNWAWPRHTGDFSIFRLYADKNGNPAEYSKDNVPYRPKRWVKVNAQGVKEGDFALIMGYPGTTYKFFTADEVTEWSEIDNNIRIEMRGILQDVMLREMLADPKINIMYAAKYASSQNGYKRAQGANWAIRRRSLREIKLAQQQEVLAWAKQKGIATTEEAVRAISKAIEGRQDLRMRQRYLLEGILMGIEMSNAPAADSDIADHWDDPARREAGLQSIRKQFEAFFNKDYSPEVEKDQLAIALLTRYAERIPAEKQPISIREGIAEYGSAKAYVEMIFDKSIYASRERFEEFMKNPDRDRLLRDPMSRFAASVAYEHQKLAKEVAAFDAPLAAAQRSYVASVLDMKGQPNLAPDANLTLRFTYGEIKGYQPRDVVTYGAKSTLEGVMEKEDPNNWEYVVDPKLKALYEAKNYGRYANSDGSMPVNFCATTHTTGGNAGSPVMNARGELIGLNFDRNWEGVGGDIEYLPNYQRSIILDIRYLLFIIDKFAGCQRLIDEIQPQF
notes: also called PeDPP11_(altconf); source: E. coli BL21(DE3)pLysS, purified (HisTrap, SEC)
- stoichiometry N [4]: 2
